Consider one compound from patent US20250213593A1, “Use of Derivatives based on Sarsasapogenin Structure and Pharmaceutical Compositions thereof” (BEIJING PHYTOVENT PHARMACEUTICAL TECHNOLOGY CO., LTD., priority 2022, published 2025).

For test [1], the system named is SOD^G93A transgenic mice. The test is described as follows: Open field test of SOD^G93A mice. To be noted: 40 mpk from Day 60, Week 14 to Week 19; vs model group.
Procedure: A mean moving speed was calculated in an open field, which is a behavioral analysis method to test motor dysfunction. The mice with motor dysfunction would have a significant reduction in mean moving speed. Our experiments were divided into three groups, i.e., a WT group, a model group and an administration group.
The subject of test [2] is SOD^G93A transgenic mice. Briefly: Gait analysis of SOD^G93A mice. As to conditions: 40 mpk from Day 60, tested at Week 19; vs model group.
Source text: Gait analysis was a behavioral analysis method that tested motor dysfunction. The mice with motor dysfunction would have a significant reduction in stride length. Our experiments were divided into two groups, i.e., a model group and an administration group.
A further test concerns ICR mice. The test is described as follows: Sleep of mice at subthreshold hypnotic dosage of sodium pentobarbital. It counts as in vivo, mouse. As to conditions: single oral gavage, high-, medium- and low-dosage; vs blank control. How it is done: After adaptive feeding of mice, 50 qualified animals were selected according to their body weights and divided into 5 groups by Excel complete randomization: a blank control group, a positive control group (Diazepam), and high-, medium- and low-dosage groups of test product, with 10 animals in each group. Animals in each group should be administrated with drug solutions and vehicles. After 1 h of administration, the animals in each group were intraperitoneally injected with a maximum subthreshold dosage of sodium pentobarbital (firstly, a pre-experiment was conducted to determine a maximum subthreshold hypnotic dosage of sodium pentobarbital).

The test system of test [3] is OCI-LY3 (human diffuse large B-cell lymphoma cells). Briefly: Cell proliferation assay, OCI-LY3. The test is classed as cell-based. To be noted: Homo sapiens, OCI-Ly3, 72 h. How it is done:
(§1) • Experimental and analytical method: cells were inoculated into a 96-well cell culture plate with a lid at a maximum concentration of 10 μM for a test compound, and diluted in three folds to a series of test concentrations, and cells were incubated at 37° C., 5% CO2 for 72 h. The concentration of DMSO was 0.5%, 100 μl of medium was taken from each well. 100 μl of reagent (Celltitute Glo Assay Kit) was added to each well, and a flat plate was shaken on a plate shaker (protected from light) for 2 min. A culture plate was incubated (protected from light) at room temperature for 30 min. Chemiluminescence values were recorded by a multi-plate plate reader, and the experimental results were as follows:
(§2) U937 (histiocytic lymphoma cells), OCI-LY3 (human diffuse large B-cell lymphoma cells), U2932 (human diffuse large B-cell lymphoma cells), and HT cells (human mixed lymphoma cells) were analyzed in the table for experimental analysis of cell proliferation.

In test [4] the test system is SARS-CoV-2 pseudovirus (HEK293T cells). The test is classed as cell-based.
Test [5] relates to mice with ulcerative colitis induced by 3.0% DSS. The test is described as follows: DSS mouse enteritis model. As to conditions: 80 mpk oral gavage once a day, 9 days. The test is classed as in vivo. An excerpt: 60 mice in good health were divided into 6 groups according to body weight, with 10 mice in each group: a normal control group, a model group, a positive drug group, and groups of different test products (Embodiment 13B, Embodiment 33, and Embodiment 34, at a dosage of 80 mpk each). In addition to the normal control group, the mice in other groups were administrated with a 3.0% DSS solution to drink freely, and consecutively modeled for 8 days. The normal control group was administrated with autoclaved filtered water to drink freely. The drug was administered on the day of modeling, and a test product was administered by oral gavage according to a designed dosage, once a day for 9 consecutive days. […] On the next day after the last administration, after deep anesthesia with CO2, cardiac blood and plasma were collected, and cryopreserved at −80° C. Subsequently, the abdominal cavity was dissected, the liver was removed and cryopreserved at −80° C. Finally, the entire colon tissue was removed, the colon length was measured, photographs were taken, and the colon content was washed with normal saline after dissection along the mesenteric side and weighed.

In test [6] the test system is U2932 (human diffuse large B-cell lymphoma cells). Briefly: Cell proliferation assay, U2932. It counts as cell-based. As to conditions: U2932, 72 h. How it is done: as §1, §2
Test [7] has as its system C57BL/6 mice modeled with MPTP. Briefly: PD mouse model (MPTP). It counts as in vivo. To be noted: 80 mpk, 15 days; vs model group, T-test. As for the experimental part:
• Experimental and analytical method: mice of C57BL/6 strain were used in this experiment, which were divided into 5 groups, including a normal control group (no injection of MPTP), a model group (modeling with MPTP), and treatment groups of three small molecules (Embodiment 13B, Embodiment 25A, and Embodiment 25B). The drug was administered at the same time as modeling was made. The modeling lasted for 5 days, followed by 30 mpk intraperitoneal injection till lasting for 15 days, and lasted for 15 days at 80 mpk. At the endpoint, the brain was soaked and fixed in PFA after cardiac perfusion, and transferred to sucrose dehydration after complete fixation, and OCT embedding and sectioning were used for TH staining after complete dehydration. The detection indicator was the number of TH-positive cells in the substantia nigra. The more positive cells, the better the protection effect of small molecules against MPTP damage. • Results: there were 12 mice in each group, and the statistical results were shown in FIG. 50, T-test, **: p<0.01, #: p<0.05.

The test system of test [8] is transgenic AD rat model (human APP mutant protein, SD rats). The test is described as follows: Water maze test of AD rats. As to conditions: administered from 7 to 13 months of age; vs model group.
The next test deals with male SD rats, TBI model. The test is described as follows: Acute traumatic brain injury (TBI) rat model. It counts as in vivo. As to conditions: 80 mpk once a day, 7 days; vs solvent control (P<0.05). How it is done:
• Experimental and analytical method: male SD rats were used in this experiment to establish a TBI rat model, which was randomly divided into: a solvent control group (8 rats), a test product Embodiment 13B (80 mpk, 10 rats), and a test product Embodiment 26 (80 mpk, 9 rats). After TBI surgery, drugs were administered by gavage once a day for 7 consecutive days.

Test [9] deals with TDP43^A315T transgenic mice. To be noted: 40 mpk from Day 60.
Source text: Our experiments were divided into two groups, i.e., a model group and an administration group.

For the compound `C[C@H]1CC[C@@]2(OC1)O[C@H]1C[C@@H]3[C@H](CC[C@H]4[C@H]3CC[C@@H]3C[C@H](NC(=O)CC(=O)N5CCN(CCN(C)C)CC5)CC[C@@]34C)[C@H]1[C@@H]2C` [Embodiment 13b], the “mean moving rate in open field” value in the test on SOD^G93A transgenic mice [1] is reported as “much larger”. Moreover, the stride length result with SOD^G93A transgenic mice [2] is given as “much larger”. In addition, in the test with ICR mice, the sleep latency result was “could shorten the sleep latency of the mice, which had a certain dosage-response relationship, but no statistically significant difference” and the sleep time entry is given as “could prolong the sleep time of the mice, but there was no statistically significant difference”. Besides, in test [3], half-maximal inhibition (IC50) was put at 4390 nM. In [4], the “mitochondrial fragmentation after pseudovirus infection” value is “not fragmented”. In [5], the colon length result was “could increase the weights and lengths of the colons”; the colon weight entry was “could increase the weights and lengths of the colons”; the “general conditions of DSS colitis mice” value was “certain improvement effects”. Besides, in test [6], 720 nM corresponded to half-maximal inhibition (IC50). Further, in test [7], the “number of TH-positive cells in the substantia nigra” value is listed as “statistically significant differences”. Besides, in [8], the “average distance from the platform” value is reported as “improved behavioral performances”, the “dwell time in the target quadrant” value was “improved behavioral performances” and the “number of platform shuttles” value is recorded as “improved behavioral performances”. Also, in the test with male SD rats, TBI model, the “early brain apoptosis rates” value is listed as “significantly lower” and the total apoptosis rates result is listed as “significantly lower”. For the same compound, the “survival time (in words)” value in test [9] is given as “could effectively prolong the survival time”. Moreover, the “start of significant body weight decrease” value in test [9] (model group Week 13) is recorded as 16 Week. Also, the death median in test [9] (model group about Day 120) came out at 135 days. This compound had an all died in test [9] (model group about Day 140) of 150 days. Moreover, the first deaths in test [9] (model group from Day 90) is greater than 100 days.
